From PubChem BioAssay (NCI)
Where “and” joins values, the source holds several entries; their conditions need not be identical. Equal entries are not always repeated.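 Where inhibition never reached the appropriate level, the endpoint shown equals the highest concentration tested. Otherwise, values were interpolated linearly from a five-concentration, 48-hour dose response in 96-well plates. GI50: concentration for 50% inhibition of growth. The concentration for full growth arrest is given as TGI.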

Assays:
Test in all cases: DTP human tumour cell line panel, 48 h
HT29 colon = tested on: HT29 colon
OVCAR-4 ovarian = tested on: OVCAR-4 ovarian
786-0 renal = tested on: 786-0 renal
SK-MEL-2 melanoma = tested on: SK-MEL-2 melanoma
CCRF-CEM leukemia = tested on: CCRF-CEM leukemia
MOLT-4 leukemia = tested on: MOLT-4 leukemia
SN12C renal = tested on: SN12C renal
PC-3 prostate = tested on: PC-3 prostate
BT-549 breast = tested on: BT-549 breast
HS 578T breast = tested on: HS 578T breast
OVCAR-3 ovarian = tested on: OVCAR-3 ovarian
TK-10 renal = tested on: TK-10 renal
HCT-15 colon = tested on: HCT-15 colon
T-47D breast = tested on: T-47D breast
M14 melanoma = tested on: M14 melanoma
UO-31 renal = tested on: UO-31 renal
EKVX NSCLC = tested on: EKVX NSCLC
COLO 205 colon = tested on: COLO 205 colon
SF-268 CNS = tested on: SF-268 CNS
SF-295 CNS = tested on: SF-295 CNS
MDA-MB-435 = tested on: MDA-MB-435
A498 renal = tested on: A498 renal
RXF 393 renal = tested on: RXF 393 renal
SF-539 CNS = tested on: SF-539 CNS
NCI-H522 lung = tested on: NCI-H522 lung
UACC-62 melanoma = tested on: UACC-62 melanoma
NCI/ADR-RES ovarian = tested on: NCI/ADR-RES ovarian
A549 NSCLC = tested on: A549 NSCLC
HOP-92 NSCLC = tested on: HOP-92 NSCLC
HOP-62 NSCLC = tested on: HOP-62 NSCLC
UACC-257 melanoma = tested on: UACC-257 melanoma
MCF7 breast = tested on: MCF7 breast
MDA-N = tested on: MDA-N
SNB-75 CNS = tested on: SNB-75 CNS
SK-OV-3 ovarian = tested on: SK-OV-3 ovarian
SW-620 colon = tested on: SW-620 colon
DU-145 prostate = tested on: DU-145 prostate
HCT-116 colon = tested on: HCT-116 colon
NCI-H23 lung = tested on: NCI-H23 lung
NCI-H460 lung = tested on: NCI-H460 lung
SK-MEL-5 melanoma = tested on: SK-MEL-5 melanoma
U251 CNS = tested on: U251 CNS
IGROV1 ovarian = tested on: IGROV1 ovarian
LOX IMVI melanoma = tested on: LOX IMVI melanoma
HL-60(TB) leukemia = tested on: HL-60(TB) leukemia
OVCAR-8 ovarian = tested on: OVCAR-8 ovarian
KM12 colon = tested on: KM12 colon
ACHN renal = tested on: ACHN renal
SNB-19 CNS = tested on: SNB-19 CNS
OVCAR-5 ovarian = tested on: OVCAR-5 ovarian
CAKI-1 renal = tested on: CAKI-1 renal
MDA-MB-231 breast = tested on: MDA-MB-231 breast
SK-MEL-28 melanoma = tested on: SK-MEL-28 melanoma
NCI-H226 lung = tested on: NCI-H226 lung
MALME-3M melanoma = tested on: MALME-3M melanoma
RPMI-8226 leukemia = tested on: RPMI-8226 leukemia
SR leukemia = tested on: SR leukemia
K-562 leukemia = tested on: K-562 leukemia
HCC-2998 colon = tested on: HCC-2998 colon

## O=c1c(NCc2ccccc2)c(C2(c3ccccc3F)SCCCS2)c1=O
HT29 colon
  TGI: > 100 µM
OVCAR-4 ovarian
  TGI: > 100 µM
786-0 renal
  TGI: > 100 µM
SK-MEL-2 melanoma
  TGI: > 100 µM
CCRF-CEM leukemia
  TGI: > 100 µM
MOLT-4 leukemia
  TGI: > 100 µM
SN12C renal
  TGI: > 100 µM
PC-3 prostate
  TGI: > 100 µM
BT-549 breast
  TGI: > 100 µM
HS 578T breast
  TGI: > 100 µM
OVCAR-3 ovarian
  TGI: > 100 µM
TK-10 renal
  TGI: > 100 µM
HCT-15 colon
  TGI: > 100 µM
T-47D breast
  TGI: > 100 µM
M14 melanoma
  TGI: > 100 µM
UO-31 renal
  TGI: > 100 µM
EKVX NSCLC
  TGI: > 100 µM
COLO 205 colon
  TGI: > 100 µM
SF-268 CNS
  TGI: > 100 µM
SF-295 CNS
  TGI: > 100 µM
MDA-MB-435
  TGI: > 100 µM
A498 renal
  TGI: > 100 µM
RXF 393 renal
  TGI: > 100 µM
SF-539 CNS
  TGI: > 100 µM
NCI-H522 lung
  TGI: > 100 µM
UACC-62 melanoma
  TGI: > 100 µM
NCI/ADR-RES ovarian
  TGI: > 100 µM
A549 NSCLC
  TGI: > 100 µM
HOP-92 NSCLC
  TGI: > 100 µM
HOP-62 NSCLC
  TGI: > 100 µM
UACC-257 melanoma
  TGI: > 100 µM
MCF7 breast
  TGI: > 100 µM
MDA-N
  TGI: > 100 µM
SNB-75 CNS
  TGI: > 100 µM
SK-OV-3 ovarian
  TGI: > 100 µM
SW-620 colon
  TGI: > 100 µM
DU-145 prostate
  TGI: > 100 µM
HCT-116 colon
  TGI: > 100 µM
NCI-H23 lung
  TGI: > 100 µM
NCI-H460 lung
  TGI: > 100 µM
SK-MEL-5 melanoma
  TGI: > 100 µM
U251 CNS
  TGI: > 100 µM
IGROV1 ovarian
  TGI: > 100 µM
LOX IMVI melanoma
  TGI: > 100 µM
HL-60(TB) leukemia
  TGI: > 100 µM
OVCAR-8 ovarian
  TGI: > 100 µM
KM12 colon
  TGI: > 100 µM
ACHN renal
  TGI: > 100 µM
SNB-19 CNS
  TGI: > 100 µM
OVCAR-5 ovarian
  TGI: > 100 µM
CAKI-1 renal
  TGI: > 100 µM
MDA-MB-231 breast
  TGI: > 100 µM
SK-MEL-28 melanoma
  TGI: > 100 µM
NCI-H226 lung
  TGI: > 100 µM

## CC(=O)OCC1OC(n2c(C)c(C)cc(C#N)c2=S)C(OC(C)=O)C(OC(C)=O)C1OC(C)=O (centres undefined)
HT29 colon
  TGI: > 100 µM
OVCAR-4 ovarian
  TGI: > 100 µM
786-0 renal
  TGI: > 100 µM
SK-MEL-2 melanoma
  TGI: > 100 µM
MOLT-4 leukemia
  TGI: > 100 µM
SN12C renal
  TGI: > 100 µM
MALME-3M melanoma
  TGI: > 100 µM
PC-3 prostate
  TGI: > 100 µM
BT-549 breast
  TGI: > 100 µM
HS 578T breast
  TGI: > 100 µM
OVCAR-3 ovarian
  TGI: > 100 µM
TK-10 renal
  TGI: > 100 µM
HCT-15 colon
  TGI: > 100 µM
T-47D breast
  TGI: > 100 µM
M14 melanoma
  TGI: > 100 µM
UO-31 renal
  TGI: > 100 µM
EKVX NSCLC
  TGI: > 100 µM
SF-268 CNS
  TGI: > 100 µM
SF-295 CNS
  TGI: > 100 µM
A498 renal
  TGI: > 100 µM
RXF 393 renal
  TGI: > 100 µM
SF-539 CNS
  TGI: > 100 µM
NCI-H522 lung
  TGI: > 100 µM
UACC-62 melanoma
  TGI: > 100 µM
A549 NSCLC
  TGI: > 100 µM
HOP-92 NSCLC
  TGI: > 100 µM
HOP-62 NSCLC
  TGI: > 100 µM
UACC-257 melanoma
  TGI: > 100 µM
RPMI-8226 leukemia
  TGI: > 100 µM
MCF7 breast
  TGI: > 100 µM
SR leukemia
  TGI: > 100 µM
MDA-N
  TGI: > 100 µM
SNB-75 CNS
  GI50: 17 µM and > 100 µM
  TGI: > 100 µM
SW-620 colon
  TGI: > 100 µM
DU-145 prostate
  TGI: > 100 µM
HCT-116 colon
  TGI: > 100 µM
K-562 leukemia
  TGI: > 100 µM
NCI-H23 lung
  TGI: > 100 µM
NCI-H460 lung
  TGI: > 100 µM
SK-MEL-5 melanoma
  TGI: > 100 µM
HCC-2998 colon
  TGI: > 100 µM
U251 CNS
  TGI: > 100 µM
IGROV1 ovarian
  TGI: > 100 µM
LOX IMVI melanoma
  TGI: > 100 µM
HL-60(TB) leukemia
  TGI: > 100 µM
OVCAR-8 ovarian
  TGI: > 100 µM
KM12 colon
  TGI: > 100 µM
ACHN renal
  TGI: > 100 µM
SNB-19 CNS
  TGI: > 100 µM
OVCAR-5 ovarian
  TGI: > 100 µM
CAKI-1 renal
  TGI: > 100 µM
MDA-MB-231 breast
  TGI: > 100 µM
SK-MEL-28 melanoma
  TGI: > 100 µM
NCI-H226 lung
  TGI: > 100 µM
